# Source: US20240252689A1, “POLY-ADP RIBOSE (PAR) TRACKER OPTIMIZED SPLIT-PROTEIN REASSEMBLY PAR DETECTION REAGENTS” (THE BOARD OF REGENTS OF THE UNIVERSITY OF TEXAS SYSTEM, priority 2021, published 2024)
# Key:
# PARylation [1] = assay: Recombinant PAR-T sensors incubated with lysates from treated Hela cells; type: cell-based
# Method: (§1) Cells were treated with various inhibitors as described herein. For inhibition of nuclear PARPs, cells were treated with PJ-34 ([…]; Enzo, ALX-270) or Olaparib (20 µM; MedChem Express, HY-10162) for 2 hours. For inhibition of PARG, cells were treated with PDD 00017273 (20 µM; MedChem Express, HY-108360) for 2 hours. For UV-induced DNA damage, the cells were harvested 15 minutes after treatment with 50 mJ/cm2 UV irradiation.
# Cells were cultured and treated as described above before the preparation of cell extracts. […]
# Dimerization-dependent GFP is a genetically encoded sensor that was initially developed to study protein interactions. In this system, a pair of a quenched GFP (ddGFPA) and a non-fluorogenic GFP (ddGFPB) form a heterodimer that can result in improved fluorescence. In this example, a ddGFP-based fluorescence sensor (fluorescent PAR-Trackers or PAR-T) was designed to allow for live cell imaging, with high signal-noise ratio. To achieve this, the various ADPR reader domains (ARBDs) were fused to ddGFP-A/B and purified as recombinant proteins (FIG. 1A, FIG. 1B, FIG. 6A). […] Similarly, degradation of PAR chains by ARH3 was detected in a time (FIG. 1F and FIG. 1G) and dose (FIG. 6H) dependent way. […]
# PARP-1 activation = assay: Live-cell luminescence assay with PAR-T NanoLuc, UV-induced PARP-1 activation in MDA-MB-231-Luc cells; type: cell-based, human; conditions: for time-dependent, UV-mediated increase in PAR-T NanoLuc signal (PARP-1 activation): time course after UV radiation, 20 μM for 2 hr prior to UV
# Method: Each point in the graph represents the mean±SEM of the relative levels of luminescence from PAR-T NanoLuc normalized to full Nano luciferase (n=3).
# FIG. 11B provides quantitative analysis of Western blot analysis and bioluminescence imaging (shown in FIG. 4B) of 231-PAR-T NanoLuc cells treated with 20 μM Niraparib or 20 μM PARG inhibitor for 2 hr prior to UV radiation. Each bar in the graph represents the mean±SEM of the relative intensities (n=3, one-way ANOVA, *p<0.05, **p<0.001, and ***p<0.0001; ns=not significant).
# as §1
# DNA damaging agents such as UV irradiation and y irradiation activate PARP-1 and cause PARylation of itself and other DNA damage repair proteins that are recruited to the damage sites. […] MDA-MB-231-Luc cells were subjected to doxycycline-induced expression of PAR-T, and then treated UV radiation. […] In a similar manner, a time course of UV-mediated PARP-1 activation using live cell luminescence assay with the PAR-T NanoLuc sensor was performed. The MDA-MB-231 cells were subjected to Dox-induced expression of PAR-T NanoLuc or intact Nano luciferase and then exposed the cells to UV radiation.
# Next, a set of assays was performed to compare the performance of the PAR-T sensors to conventional PAR detection reagents (WWE-Fc and PAR antibody) in a variety of assays. The following assays were compared (1) Western blotting with WWE-Fc versus fluorescence assay with PAR-T ddGFP, which were performed in conjunction with ARH3-mediated degradation of PAR in vitro (FIG. 11A); (2) Western blotting with WWE-Fc versus live-cell luciferase assay using PAR-T NanoLuc, which were performed in conjunction with UV-induced DNA damage in MDA-MB-231 cells (FIG. 11B); (3) enzyme-linked immunosorbent assay (ELISA) with PAR antibody versus fluorescence assay with PAR-T ddGFP, which were performed using immobilized PAR (FIG. 11C); and (4) immunofluorescence with WWE-Fc versus live-cell imaging using PAR-T ddGFP, which were performed using H2O2-mediated PARP-1 activation in 293T cells (FIG. 11D and FIG. 11E).
# PARylation [2] = assay: PAR-T luminescence in MDA-MB-231-luc xenograft tumors; type: in vivo; conditions: xenograft tumors in mice
# Method: In the next experiment, the utility of luminescent PAR-T sensor to measure the levels of PARylation in vivo was tested. Xenograft tumors were established using the MDA-MB-231-luc cells the expression of PAR-T was induced by doxycycline (FIG. 5A). […] The luminescence from PAR-T was normalized to the firefly luminescence to confidently measure the differences in PARylation, while accounting for the variability in tumor sizes.
# PAR accumulation = assay: Time course of PAR-T NanoLuc bioluminescence of breast cancer cells injected into mice; type: in vivo, C57/BL6 mice; conditions: 24-hr time course post injection
# From the text: FIGS. 5D to 5E show analysis of a time course of bioluminescence imaging of 231-PAR-T NanoLuc cells transplanted into mice and treated with PARG inhibitor. Bioluminescence imaging (5D) with the region of interest expanded (5E). Each point in the graph in (5F) represents the mean±SEM of the relative levels of luminescence of NanoLuc of PAR-T NanoLuc (n=4).
# PAR accumulation in breast cancer cells injected into C57/BL6 mice without establishing xenograft tumors over a 24-hr time course post injection, with or without PARG inhibitor treatment (FIG. 5D, FIG. 5E and FIG. 5F) was measured. PAR accumulation was readily detected in the breast cancer cells injected into the mice in the absence of treatment.
# PARylation [3] = assay: Live cell imaging of 3D cancer spheroids of MCF7 cells expressing PAR-T ddGFP; type: cell-based; conditions: for distribution of PARylation (PAR) throughout the spheroid: MCF7 3D cancer spheroids
# Method: FIGS. 8C and 8D provides representative images (8C) and quantification (8D) of Z-projections of cancer spheroids formed using MCF-7 cells subjected to Dox-induced expression of the PAR-T ddGFP. The spheroids were treated with 20 µM Niraparib and live-cell imaging was performed at the indicated times. (Left) The spheroids were divided into ‘outer’ and ‘core’ sections for quantification as indicated by the white circles. (Right) Enlargement of the indicated areas from the left panels (yellow, core; pink, outer) as indicated.
# Cancers are heterogenous tissues with spatial variation in nutrient availability, and stress. Since PARylation is enhanced by stressors such as DNA damage, another experiment tested whether there was any spatial variation in PARylation levels. Live cell imaging was performed in 3D cancer spheroids using MCF7 cells expressing the WWE based PAR-T sensors. […] A time course of Niraparib treatment in 3D cancer spheroids was performed to visualize spatio-temporal changes in PAR levels over time.
Compound,fluorescence of recombinant PAR-T sensors with cell lysates (PARylation [1]; lysates from cells treated with both H2O2 and PARG inhibitor),fluorescence of recombinant PAR-T sensors with cell lysates (PARylation [1]; lysates from treated Hela cells),PAR-T luminescence (PARP-1 activation; UV radiation of treated cells),"time-dependent, UV-mediated increase in PAR-T NanoLuc signal (PARP-1 activation) (PARP-1 activation)",PARylation detected by PAR-T luminescence normalized to firefly luminescence (PARylation [2]),luminescence from PAR-T NanoLuc (PAR accumulation),distribution of PARylation (PAR) throughout the spheroid (PARylation [3]),"PAR levels in cells at the core versus outer layer of the spheroid (PARylation [3]; time course, 20 µM Niraparib)","decrease in PAR-T NanoLuc signal (PARP-1 activation; UV-treated cells pre-treated with compound, versus basal)","decrease in PAR-T NanoLuc signal (PARP-1 activation; basal (-UV) conditions, 20 μM, 2 hr)","distribution of PARylation (PAR) throughout the spheroid (PARylation [3]; WWE based PAR-T sensors, 20 uM Niraparib)"
PDD 00017273 [PARG inhibitor],pronounced increase in fluorescence,increase in fluorescence,enhanced PAR-T luminescence,more spontaneous,increase in PARylation,increased significantly by 6 hr and then diminished by 24 hr,–,–,–,–,–
NC(=O)c1cccc2cn(-c3ccc([C@@H]4CCCNC4)cc3)nc12 [Niraparib],–,–,–,but not in Niraparib-treated cells,–,–,inhibited,relatively resistant,greater,50%,–
"O=C(c1cc(Cc2n[nH]c(=O)c3ccccc23)ccc1F)N1CCN(C(=O)C2CC2)CC1 [olaparib, Olaparib]",–,–,–,–,–,–,–,–,–,–,inhibited
